Source: patent publication US7186695B2 (priority 2001, dated 2007)
Entries after “also recorded” stand apart in the source; their conditions may differ. Like-named read-outs stand apart in the source and are kept apart here.

Columns and labels:
HDMVE cells = assay: Endothelial cell tube formation in Matrigel; format: cell-based, human; conditions: 18 hours; for effect on tube formation: 0.1, 1 or 100 μM
Procedure: FIG. 21. GSAO perturbs endothelial cell tube formation in Matrigel. Matrigel (100 μl) was added to wells of 96 well plates and allowed to gel for 60 minutes at 37° C. HDMVE cells (10,000 cells per well) in complete media containing 0.1, 1 or 100 μM GSAA or GSAO were seeded onto the Matrigel and the plates were incubated in 5% CO2, 37° C. The phase contrast micrographs were taken after 18 hours incubation.
Endothelial cells arrange into tube-like structures when seeded onto three-dimensional matrices such as the extracellular matrix preparation, Matrigel, or collagen. The tubes can be considered to represent immature blood vessels. Matrigel (100 μl, Becton Dickinson, Bedford, Mass.) was added to wells of 96 well plates (Gibco BRL, Gaithersburg, Md.) and allowed to gel for 60 minutes at 37° C. Human dermal microvascular endothelial (HDMVE) cells were harvested and cultured as described by Stathakis et al. (1997). HDMVE cells (8,000 cells per well) in 150 μl of M199 (Gibco BRL, Gaithersburg, Md.) media containing 30% pooled human serum, 50 μg per mL Heparin (Sigma, St. Louis, Mo.), 100 μg per mL Endothelial Cell Growth Supplement (Gibco BRL, Gaithersburg, Md.) and 0.1, 1 or 100 μM GSM or GSAO were seeded onto the Matrigel and the plates were incubated for 18 hours in 5% CO2, 37° C. Phase contrast micrographs of the wells were collected.

[1] = tested on: chick chorioallantoic membrane (CAM) angiogenesis; assay: Chick chorioallantoic membrane (CAM) angiogenesis assay; format: in vivo; conditions: 5, 10 or 50 μg per pellet, 48 hr
Procedure: FIG. 22. Inhibition of CAM angiogenesis by GSAO. Fertilised 3 day-old white Leghorn eggs were cracked, the embryos placed in petri dishes and incubated for 3 days. Methylcellulose discs containing 5, 10 or 50 μg of either GSAA or GSAO were then applied to the CAM of individual embryos and incubated for 48 hr. The CAMs were scored for no obvious effect or inhibition of angiogenesis as defined by avascular zones. Photographs of CAM's after incubation with discs containing 10 μg of either GSM (top) or GSAO (bottom) is shown in the left hand panel. The dotted circle indicates the placement of the disc.
The chick CAM assay has been used for the detection and analysis of angiogenesis inhibition (Nguyen et al., 1994). Fertilised 3 day-old white Leghorn eggs (Spafas, Norwich, Conn.) were cracked, the embryos with intact yolks placed in 20×100 mm petri dishes and incubated for 3 days at 37° C. and 3% CO2 (Folkman, 1995). Methylcellulose (Fisher Scientific, Fair Lawn, N.J.) discs containing 5, 10 or 50 μg of either GSAA or GSAO were then applied to the CAM of individual embryos and incubated for 48 hr at 37° C. and 3% CO2. The discs were made by desiccation of GSAA or GSAO in 10 μl of 0.45% methycellulose on teflon rods. The CAMs were observed using a stereomicroscope and scored for no obvious effect or inhibition of CAM angiogenesis as defined by avascular zones. On some occasions CAM blood vessels were injected with India ink and photographed.

BAE cells = assay: Proliferation and viability of cultured cells, 72 hr, cell count; format: cell-based, bovine; conditions: for IC50: Bos taurus, 72 h, BAE, 72 hr
Procedure: (§1) BCE (Folkman et al. 1979), BAE, BxPC-3 (ATCC, Bethesda, Md.), HT1080 (Jiang et al., 1999), 3T3 (ATCC, Bethesda, Md.) and BVSM (Hogg et al., 1997) cells were harvested and cultured as indicated. Cells (0.5 mL of 30,000 or 100,000 cells per mL) were seeded into gelatinized 24-well culture plates (Corning Costar, Corning, N.Y.) in Dulbecco's Modified Eagle's Medium (DMEM, JHR Bioscience, Lenexa, Kans.) containing 10% fetal calf serum (FCS, Intergen Comp., Purchase, N.Y.) and 1% Glutamine Pen-Strep (GPS, Irvine Scientific, Santa Ana, Va.) and allowed to attach for 24 hr in 10% CO2 at 37° C. The media was then replaced with DMEM and 1% GPS containing 0 to 1 mM GSAO or GSAA and either 5% bovine calf serum (BCS, HyClone, Logan, Utah) and 1 ng per mL FGF-2 (Genzyme, Cambridge, Mass.) or 5% BCS and 10 ng per mL VEGF (Genzyme, Cambridge, Mass.) for BCE cells, 5% or 10% BCS for BAE cells, 5% BCS for BVSM cells, and 5% FCS for BxPC-3, HT1080 and 3T3 cells. Cells were cultured for 0 to 72 hr in 10% CO2 at 37° C. then dispersed in trypsin/EDTA (GibcoBRL, Granc Island, N.Y.), resuspended in Coulter balanced electrolyte solution and counted with a Z1 Coulter counter (Coulter Corp., Miami, Fla.). In all experiments there were two control wells containing DMEM with 1% GPS and either 5% BCS for BCE cells, 2% BCS for BAE and BVSM cells, or 2% FCS for BxPC-3, HT1080 and 3T3 cells. These wells represented no to limited proliferation.

BVSM cells = assay: as above; format: cell-based, bovine
Procedure: FIG. 19. Effect of GSAO on Proliferation of non-endothelial cells. 15,000 BxPC-3 (part A), HT1080 (part B), 3T3 (part C) or BVSM (part D) cells per well were seeded into gelatinised 24-well culture plates and allowed to attach for 24 hr. The media was then replaced with DMEM containing 0 to 1 mM GSAO or GSAA and either 5% BCS (part D) or 5% FCS (parts A, B and C). Cells were cultured for 72 hr and then dispersed and counted. The dotted lines indicate the cell number in control wells containing DMEM and 2% BCS (part D) or 2% FCS (parts A, B and C) which represented no to limited proliferation. The data points and errors represent the mean and range of duplicate wells.
as §1

Which “effect on tube formation” value (HDMVE cells) does the source give for `N[C@@H](CCC(=O)N[C@@H](CSCC(=O)Nc1ccc([As](=O)(O)O)cc1)C(=O)NCC(=O)O)C(=O)O` [GSAA, 4-(N-(S-glutathionylacetyl)amino)phenylarsonic acid, reference compound] here?
The value was “no apparent effect”.

What about the “adverse effect on the wellbeing of the chick embryo” value [1] of the same compound?
The value was “Neither GSAA nor GSAO had any apparent adverse effect”.

And the “inhibition of CAM angiogenesis (avascular zones)” value [1]?
Its value is “did not inhibit CAM angiogenesis”.

And the “inhibition of CAM angiogenesis (avascular zones)” value ([1]; listed as GSM)?
Its value is “no effects”.

What about the “effect on proliferation or viability of BAE cells” value (BAE cells; not shown) of the same compound?
The value was “did not effect either proliferation or viability”.

What about the “effect on proliferation or viability” value (BVSM cells; up to a concentration of 1 mM) of the same compound?
Its value is “no significant effect”.

What does the source list for `NC(CCC(=O)NC(CSCC(=O)Nc1ccc([As]=O)cc1)C(=O)NCC(=O)O)C(=O)O` (centres unmarked) [GSAO, 4-(N-(S-glutathionylacetyl)amino)-phenylarsenoxide]?
effect on tube formation (HDMVE cells): perturbed tube formation; concentration at which effects on tube formation were apparent (HDMVE cells): 0.1 µM; concentration at which effects on tube formation were marked (HDMVE cells): 100 µM; adverse effect on the wellbeing of the chick embryo [1]: Neither GSAA nor GSAO had any apparent adverse effect; inhibition of CAM angiogenesis (avascular zones) [1]: inhibited angiogenesis in the CAM in a concentration-dependent manner; IC50 (BAE cells; 5% BCS, read-out: Proliferation IC50): ~0.02 µM; IC50 (BAE cells; 5% BCS, >90% confluent, read-out: Viability IC50): ~8 µM; IC50 (BAE cells; 10% BCS, read-out: Proliferation IC50): ~0.2 µM; IC50 (BAE cells; 10% BCS, >90% confluent, read-out: Viability IC50): ~10 µM; Proliferation IC50 (BVSM cells; 5% BCS, 72 hr): did not affect the proliferation; also recorded: No effect; IC50 (BVSM cells; Bos taurus, 5% BCS, 72 hr): ~40 µM
